From US8017612B2, “Piperazine compound and use thereof as a HCV polymerase inhibitor” (priority 2006, dated 2011) come the findings set out here.

The target of experiment [1] is T1, HCV polymerase (NS5B) type 1b (Hepatitis C virus genotype 1b, UniProt P26663).
T1 construct: a region encoding NS5B (J Virol 1991 March, 65(3), 1105-13, 544 amino acids after deletion of 47 amino acids on the C-terminal); 6xHis (C); made in house; host or cells: Escherichia coli
In words: Assay of enzyme (HCV polymerase) inhibitory activity, type 1b enzyme. Format: biochemical, HCV BK strain (type 1b). Conditions: HCV polymerase inhibitory activity IC50, 1b, type 1b enzyme. In outline: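 IC50 derived from [3H]UTP incorporation into TCA-insoluble RNA, compared with and without test compound. Reaction (25 °C, 60 min, Tris pH 7.5, 5 mM MgCl2): E. coli-expressed 1b NS5B Δ47 with His tag at 0.5 μg/ml, 5 μg/ml run-off substrate RNA, ATP/GTP/CTP 50 μM, UTP 2 μM.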

The target of experiment [2] is T2, HCV polymerase (NS5B) type 1a (Hepatitis C virus genotype 1a, UniProt P26664).
T2 construct: made in house; host or cells: Escherichia coli (by the 'similar method' of the 1b enzyme)
The experiment is described as follows: Assay of enzyme (HCV polymerase) inhibitory activity, type 1a enzyme. It is filed as biochemical, HCV type 1a (cloned from the blood of patients). Conditions: HCV polymerase inhibitory activity IC50, 1a, type 1a enzyme. In outline:
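Reactions ran 60 min at 25° C in 20 mM Tris-HCl pH 7.5, 5 mM MgCl2, 50 mM NaCl, holding genotype 1a NS5B (1.5 μg/ml, Δ47 C-terminus, 6His), substrate RNA 5 μg/ml, UTP 2 μM with tritiated UTP and other NTPs 50 μM. IC50 derived from incorporated radiolabel in filter-trapped RNA relative to uninhibited reaction.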

`CCC(F)(F)c1ccc(CNC(=O)[C@H]2CN(c3nc4ccccc4[nH]3)CCN2S(=O)(=O)c2ccc(OC(F)(F)F)cc2)cc1` [Example 758, (R)-4-(1H-benzimidazol-2-yl)-1-(4-trifluoromethoxy-benzenesulfonyl)-piperazine-2-carboxylic acid 4-(1,1-difluoro-propyl)-benzylamide]: the concentration for half-maximal inhibition (IC50) in experiment [1] and in experiment [2] was less than 100 nM in each case.

In the case of `CCC(F)(F)c1ccc(CNC(=O)[C@H]2CN(c3cnc4cncnc4n3)CCN2S(=O)(=O)c2ccc(-c3nc(=O)o[nH]3)cc2)cc1` [Example 759, (R)-1-[4-(5-oxo-2,5-dihydro-[1,2,4]oxadiazol-3-yl)-benzenesulfonyl]-4-pteridin-7-yl-piperazine-2-carboxylic acid 4-(1,1-difluoro-propyl)-benzylamide], the IC50 in experiment [1] and in experiment [2] was less than 100 nM in each case.

For the molecule `CCC(F)(F)c1ccc(CNC(=O)[C@H]2CN(c3cnc4cccnc4n3)CCN2S(=O)(=O)c2ccc(OC(F)(F)F)cc2)cc1` [Example 760, (R)-4-pyrido[2,3-b]pyrazin-3-yl-1-(4-trifluoromethoxy-benzenesulfonyl)-piperazine-2-carboxylic acid 4-(1,1-difluoro-propyl)-benzylamide], the IC50 in experiment [1] and in experiment [2] was less than 100 nM in each case.

Consider `CCC(F)(F)c1ccc(CNC(=O)[C@H]2CN(c3cnc4ncccc4n3)CCN2S(=O)(=O)c2ccc(OC(F)(F)F)cc2)cc1` [Example 761, (R)-4-pyrido[2,3-b]pyrazin-2-yl-1-(4-trifluoromethoxy-benzenesulfonyl)-piperazine-2-carboxylic acid 4-(1,1-difluoro-propyl)-benzylamide], for which the IC50 in experiment [1] and in experiment [2] was less than 100 nM in each case.

Regarding `O=C(NCc1ccc(OC(F)(F)F)cc1)[C@H]1CN(c2ccc3nccnc3n2)CCN1S(=O)(=O)c1ccc(OC(F)(F)F)cc1` [Example 762, (R)-4-pyrido[2,3-b]pyrazin-6-yl-1-(4-trifluoromethoxy-benzenesulfonyl)-piperazine-2-carboxylic acid 4-trifluoromethoxy-benzylamide], the IC50 in experiment [1] and in experiment [2] was less than 100 nM throughout.

As for `O=C(NCc1ccc(OCC(F)(F)F)cc1)[C@H]1CN(c2cnc3cncnc3n2)CCN1S(=O)(=O)c1ccc(OC(F)(F)F)cc1` [Example 763, (R)-4-pteridin-7-yl-1-(4-trifluoromethoxy-benzenesulfonyl)-piperazine-2-carboxylic acid 4-(2,2,2-trifluoro-ethoxy)-benzylamide], the IC50 in experiment [1] and in experiment [2] was less than 100 nM throughout.

`CCOC(=O)CN(C)c1ccc(S(=O)(=O)N2CCN(c3cnc4cnccc4n3)C[C@@H]2C(=O)NCc2ccc(OC(F)(F)F)cc2)cc1` [Example 764, (methyl-{4-[(R)-4-pyrido[3,4-b]pyrazin-2-yl-2-(4-trifluoromethoxy-benzylcarbamoyl)-piperazine-1-sulfonyl]-phenyl}-amino)-acetic acid ethyl ester]: the IC50 in experiment [1] and in experiment [2] was less than 100 nM in each case.

For the molecule `CN(CC(=O)O)c1ccc(S(=O)(=O)N2CCN(c3cnc4cnccc4n3)C[C@@H]2C(=O)NCc2ccc(OC(F)(F)F)cc2)cc1` [Example 765, (methyl-{4-[(R)-4-pyrido[3,4-b]pyrazin-2-yl-2-(4-trifluoromethoxy-benzylcarbamoyl)-piperazine-1-sulfonyl]-phenyl}-amino)-acetic acid], the IC50 in experiment [1] and in experiment [2] was less than 100 nM throughout.

With `O=C(NCc1ccc(OC(F)(F)F)cc1)[C@H]1CN(c2cnc3c(Cl)cccc3n2)CCN1S(=O)(=O)c1ccc(OC(F)(F)F)cc1` [Example 766, (R)-4-(5-chloro-quinoxalin-2-yl)-1-(4-trifluoromethoxy-benzenesulfonyl)-piperazine-2-carboxylic acid 4-trifluoromethoxy-benzylamide], the concentration for half-maximal inhibition (IC50) – broadly, the concentration at which inhibition is half-maximal – in experiment [1] was less than 100 nM; in experiment [2], 100 to 1000 nM.

In the case of `Cc1ncc2ncc(N3CCN(S(=O)(=O)c4ccc(OC(F)(F)F)cc4)[C@@H](C(=O)NCc4ccc(OC(F)(F)F)cc4)C3)nc2n1` [Example 767, (R)-4-(2-methyl-pteridin-7-yl)-1-(4-trifluoromethoxy-benzenesulfonyl)-piperazine-2-carboxylic acid 4-trifluoromethoxy-benzylamide], the IC50 in experiment [1] and in experiment [2] was less than 100 nM each time.

`O=C(NCc1ccc(OC(F)(F)F)cc1)[C@H]1CN(c2nc3ccncc3s2)CCN1S(=O)(=O)c1ccc(OC(F)(F)F)cc1` [Example 768, (R)-4-thiazolo[5,4-c]pyridin-2-yl-1-(4-trifluoromethoxy-benzenesulfonyl)-piperazine-2-carboxylic acid 4-trifluoromethoxy-benzylamide]: the 50% inhibitory concentration (IC50) in experiment [1] and in experiment [2] was less than 100 nM each time.

In the case of `O=C(NCc1ccc(OC(F)(F)F)cc1)[C@H]1CN(c2cnc3ncccc3n2)CCN1S(=O)(=O)c1ccc(OC(F)(F)F)cc1` [Example 769, (R)-4-pyrido[2,3-b]pyrazin-2-yl-1-(4-trifluoromethoxy-benzenesulfonyl)-piperazine-2-carboxylic acid 4-trifluoromethoxy-benzylamide], the half-inhibitory concentration (IC50) in experiment [1] and in experiment [2] was less than 100 nM throughout.

Regarding `O=C(NCc1ccc(OC(F)(F)F)cc1)[C@H]1CN(c2cnc3cccnc3n2)CCN1S(=O)(=O)c1ccc(OC(F)(F)F)cc1` [Example 770, (R)-4-pyrido[2,3-b]pyrazin-3-yl-1-(4-trifluoromethoxy-benzenesulfonyl)-piperazine-2-carboxylic acid 4-trifluoromethoxy-benzylamide], the concentration for half-maximal inhibition (IC50) in experiment [1] and in experiment [2] was less than 100 nM each time.

For the molecule `O=C(NCc1ccc(OC(F)(F)F)cc1)[C@H]1CN(c2ccc3cnccc3n2)CCN1S(=O)(=O)c1ccc(OC(F)(F)F)cc1` [Example 771, (R)-4-[1,6]naphthyridin-2-yl-1-(4-trifluoromethoxy-benzenesulfonyl)-piperazine-2-carboxylic acid 4-trifluoromethoxy-benzylamide], the half-maximal inhibitory concentration (IC50) in experiment [1] and in experiment [2] was less than 100 nM each time.

Consider `O=C(NCc1ccc(SC(F)(F)F)cc1)[C@H]1CN(c2cnc3cncnc3n2)CCN1S(=O)(=O)c1ccc(OC(F)(F)F)cc1` [Example 772, (R)-4-pteridin-7-yl-1-(4-trifluoromethoxy-benzenesulfonyl)-piperazine-2-carboxylic acid 4-trifluoromethylsulfanyl-benzylamide], for which the half-inhibitory concentration (IC50) in experiment [1] and in experiment [2] was less than 100 nM in each case.

As to `CCCc1ccc(CNC(=O)[C@H]2CN(c3cnc4cncnc4n3)CCN2S(=O)(=O)c2ccc(OC(F)(F)F)c(CCCC(=O)O)c2)cc1` [Example 773, 4-{5-[(R)-2-(4-propyl-benzylcarbamoyl)-4-pteridin-7-yl-piperazine-1-sulfonyl]-2-trifluoromethoxy-phenyl}-butyric acid], the IC50 in experiment [1] and in experiment [2] was less than 100 nM in each case.

With `O=C(O)c1ccc(N2CCN(S(=O)(=O)c3ccc(OC(F)(F)F)cc3)[C@@H](C(=O)NCc3ccc(OC(F)(F)F)cc3)C2)nc1` [Example 774, 6-[(R)-4-(4-trifluoromethoxy-benzenesulfonyl)-3-(4-trifluoromethoxy-benzylcarbamoyl)-piperazin-1-yl]-nicotinic acid], the IC50 in experiment [1] and in experiment [2] was less than 100 nM throughout.

Turning to `O=C(NCc1ccc(OC(F)(F)F)cc1)[C@H]1CN(c2cnc3cnccc3n2)CCN1S(=O)(=O)c1ccc(Br)s1` [Example 775, (R)-1-(5-bromo-thiophene-2-sulfonyl)-4-pyrido[3,4-b]pyrazin-2-yl-piperazine-2-carboxylic acid 4-trifluoromethoxy-benzylamide], the IC50 in experiment [1] and in experiment [2] was less than 100 nM each time.

In the case of `O=C(NCc1ccc(OC(F)(F)F)cc1)[C@H]1CN(c2nc3cccnc3s2)CCN1S(=O)(=O)c1ccc(OC(F)(F)F)cc1` [Example 776, (R)-4-thiazolo[5,4-b]pyridin-2-yl-1-(4-trifluoromethoxy-benzenesulfonyl)-piperazine-2-carboxylic acid 4-trifluoromethoxy-benzylamide], the IC50 in experiment [1] and in experiment [2] was less than 100 nM throughout.

For the molecule `CCCc1ccc(CNC(=O)[C@H]2CN(c3cnc4cnccc4n3)CCN2S(=O)(=O)c2ccc(I)cc2)cc1` [Example 777, (R)-1-(4-iodo-benzenesulfonyl)-4-pyrido[3,4-b]pyrazin-2-yl-piperazine-2-carboxylic acid 4-propyl-benzylamide], the IC50 in experiment [1] and in experiment [2] was less than 100 nM in each case.

In the case of `CCCc1ccc(CNC(=O)[C@H]2CN(c3cnc4cnccc4n3)CCN2S(=O)(=O)c2ccc(-c3cccc(O)c3)cc2)cc1` [Example 778, (R)-1-(3′-hydroxy-biphenyl-4-sulfonyl)-4-pyrido[3,4-b]pyrazin-2-yl-piperazine-2-carboxylic acid 4-propyl-benzylamide], the IC50 in experiment [1] and in experiment [2] was less than 100 nM each time.

`CCCc1ccc(CNC(=O)[C@H]2CN(c3cnc4cnccc4n3)CCN2S(=O)(=O)c2ccc(-c3cccc(OCC(=O)O)c3)cc2)cc1` [Example 779, {4′-[(R)-2-(4-propyl-benzylcarbamoyl)-4-pyrido[3,4-b]pyrazin-2-yl-piperazine-1-sulfonyl]-biphenyl-3-yloxy}-acetic acid]: the IC50 in experiment [1] and in experiment [2] was less than 100 nM throughout.
